Experimental data: patent US20260070917A1, “CYCLIN DEPENDENT KINASE DEGRADERS AND METHODS OF USE THEREOF” (Differentiated Therapeutics Inc, priority 2023, published 2026)
Read-outs that look alike come from different tables or passages of the source.

How the values were obtained:
Assay type in all cases: cell-based
CCNE1 = target: T1, CCNE1 (Homo sapiens, UniProt P24864); assay: HiBit Assay Protocol for CCNE1 (HIBIT protein quantification, degradation); conditions: HEK293-CCNE1-Hibit cells, compound treatment for 6 hours
T1 construct: host or cells: HEK293-CCNE1-Hibit
T1 sequence (P24864 whole entry): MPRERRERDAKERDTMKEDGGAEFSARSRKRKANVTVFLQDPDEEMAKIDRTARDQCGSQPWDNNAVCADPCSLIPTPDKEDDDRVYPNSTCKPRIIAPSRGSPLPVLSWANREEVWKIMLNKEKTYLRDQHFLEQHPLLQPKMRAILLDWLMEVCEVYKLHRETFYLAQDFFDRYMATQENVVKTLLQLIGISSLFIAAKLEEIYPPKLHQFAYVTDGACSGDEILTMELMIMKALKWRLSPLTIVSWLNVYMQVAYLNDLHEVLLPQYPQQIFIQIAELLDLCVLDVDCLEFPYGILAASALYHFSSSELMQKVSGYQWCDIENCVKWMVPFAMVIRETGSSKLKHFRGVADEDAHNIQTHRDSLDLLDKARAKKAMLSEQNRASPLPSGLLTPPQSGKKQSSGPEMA
Summary of the method: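 HEK293 cells expressing HiBiT-tagged CCNE1 were seeded overnight, then treated 6 h with a 3-fold, 10-point compound dilution series. HiBiT levels were read by lytic LgBiT luminescence and normalised to DMSO-only (high) and medium-only (low) controls. DC50 was derived by curve fitting.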

CDK9 = target: T2, CDK9 (Homo sapiens, UniProt P50750); assay: HiBit Assay Protocol for CDK9 (HIBIT protein quantification, degradation); conditions: HEK293-CDK9-Hibit cells, compound treatment for 6 hours; for Dmax: read-out: CDK9 HIBIT Protein Quantification Maximum
T2 construct: host or cells: HEK293-CDK9-Hibit
T2 sequence (P50750 whole entry): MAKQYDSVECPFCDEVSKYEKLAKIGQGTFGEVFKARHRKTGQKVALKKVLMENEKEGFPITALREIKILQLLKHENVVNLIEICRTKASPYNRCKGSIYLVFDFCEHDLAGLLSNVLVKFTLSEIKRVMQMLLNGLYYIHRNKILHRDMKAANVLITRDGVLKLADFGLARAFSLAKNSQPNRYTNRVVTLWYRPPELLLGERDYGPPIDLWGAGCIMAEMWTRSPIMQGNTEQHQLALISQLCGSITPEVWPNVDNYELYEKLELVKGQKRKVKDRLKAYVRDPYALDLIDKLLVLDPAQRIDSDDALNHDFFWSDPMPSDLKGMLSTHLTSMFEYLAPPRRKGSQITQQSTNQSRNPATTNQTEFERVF
Summary of the method: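 HEK293 cells carrying HiBiT-tagged CDK9 treated 6 h with compounds in a 3-fold, 10-point dilution series. CDK9 level read by lytic Nano-Glo HiBiT/LgBiT luminescence and normalized to 0.1% DMSO (high) and medium-only (low) controls. DC50 from curve fitting.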

CDK2 = target: T3, CDK2 (Homo sapiens, UniProt P24941); assay: HiBit Assay Protocol for CDK2 (HIBIT protein quantification, degradation); conditions: HEK293-CDK2-Hibit cells, compound treatment for 6 hours; for DC50: ABS DC50
T3 construct: host or cells: HEK293-CDK2-Hibit
Summary of the method: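 HEK293 cells expressing HiBiT-tagged CDK2 were seeded overnight, then treated 6 h with a 3-fold, 10-point compound dilution series. CDK2 levels were read as luminescence after lytic HiBiT/LgBiT detection, normalised to DMSO-only and medium-only controls, and DC50 derived by curve fitting.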

Compound	CCNE1 HIBIT Protein Quantification Maximum (CCNE1) [%]	Dmax (CDK9; 6 h) [%]	CDK2 HIBIT Protein Quantification Maximum (CDK2) [%]	DC50 (CDK2) [nM]	DC50 (CDK9; ABS DC50) [nM]	Dmax (CDK9) [%]
CC1CCCC1N1C(=O)C2(CC2)c2cnc(NC3CCN(S(=O)(=O)N4CC5(CN(C(=O)CCc6ccc7c(c6)n(C)c(=O)n7C6CCC(=O)NC6=O)C5)C4)CC3)nc21 (centres unmarked) [Compound 58]	10	9	12			
CC1CCCC1N1C(=O)C2(CC2)c2cnc(NC3CCN(S(=O)(=O)N4CC5CN(C(=O)CCCCc6ccc7c(c6)n(C)c(=O)n7C6CCC(=O)NC6=O)CC54)CC3)nc21 (centres unmarked) [Compound 111]	9	25	13			
CC1CCCC1N1C(=O)C2(CC2)c2cnc(NC3CCN(S(=O)(=O)N4CCC5(CCCN5C(=O)CCCc5cccc6c5n(C)c(=O)n6C5CCC(=O)NC5=O)C4)CC3)nc21 (centres unmarked) [Compound 25]	25	15	29			
O=C1CCC(N2Cc3cc(N4CCC(CN5CCN(c6cccc(S(=O)(=O)c7ccc(Nc8ncc9c(n8)N([C@@H]8CCC[C@@H](O)C8)C(=O)C98CC8)cc7)c6)CC5)CC4)ccc3C2=O)C(=O)N1 (stereo partly drawn) [Compound 124, 3-{5-[4-({4-[3-(4-{7′-[(1R,3R)-3-hydroxycyclohexyl]-6′-oxospiro [cyclopropane-1,5′-pyrrolo[2,3-d]pyrimidin]-2′-ylamino}benzenesulfonyl)phenyl]piperazin-1-yl}methyl)piperidin-1-yl]-1-oxo-3H-isoindol-2-yl}piperidine-2,6-dione]	48		61	6	73.6	57
CC1CCCC1N1C(=O)C2(CC2)c2cnc(NC3CCN(S(=O)(=O)N4CC5(CN(C(=O)CCc6cccc7c6n(C)c(=O)n7C6CCC(=O)NC6=O)C5)C4)CC3)nc21 (centres unmarked) [Compound 19]	26	25	19			
CC1CCCC1N1C(=O)C2(CC2)c2cnc(NC3CCN(S(=O)(=O)C4CCCN(C(=O)CCCCCCCc5cccc6c5n(C)c(=O)n6C5CCC(=O)NC5=O)C4)CC3)nc21 (centres unmarked) [Compound 48]	42	15	35			
CC1CCCC1N1C(=O)C2(CC2)c2cnc(NC3CCN(S(=O)(=O)N4CCC5(CCCN5C(=O)CCc5cccc6c5n(C)c(=O)n6C5CCC(=O)NC5=O)C4)CC3)nc21 (centres unmarked) [Compound 17]	26	26	54	17		
CC1CCCC1N1C(=O)C2(CC2)c2cnc(NC3CCN(S(=O)(=O)N4CC5(CCCCN5C(=O)CCCc5ccc6c(c5)n(C)c(=O)n6C5CCC(=O)NC5=O)C4)CC3)nc21 (centres unmarked) [Compound 65]	4	9	30			
CC1CCCC1N1C(=O)C2(CC2)c2cnc(NC3CCN(S(=O)(=O)N4CC(N(C)C(=O)CCCCCCCCCc5ccc6c(c5)n(C)c(=O)n6C5CCC(=O)NC5=O)C4)CC3)nc21 (centres unmarked) [Compound 86]	37	34	65	16		

Continued, in another order:

CCNE1 HIBIT Protein Quantification Maximum (CCNE1) [%]	Dmax (CDK9; 6 h) [%]	CDK2 HIBIT Protein Quantification Maximum (CDK2) [%]	DC50 (CDK2) [nM]	Compound	DC50 (CDK9; ABS DC50) [nM]	Dmax (CDK9) [%]
44	2	78	6	Cn1c(=O)n(C2CCC(=O)NC2=O)c2cccc(C3CCN(Cc4cccc(S(=O)(=O)N5CCC(Nc6ncc7c(n6)N([C@@H]6CCC[C@@H](O)C6)C(=O)C76CC6)CC5)c4)CC3)c21 (some centres unmarked) [Compound 148]		
31	15	64	7.87	C[C@@H]1CN(S(=O)(=O)c2cccc(CN3CCC(c4ccc5c(N6CCC(=O)NC6=O)nn(C)c5c4)CC3)c2)CC[C@H]1Nc1ncc2c(n1)N([C@@H]1CCC[C@@H](O)C1)C(=O)C21CC1 [Compound 154]		
45	20	79	3.34	Cn1nc(N2CCC(=O)NC2=O)c2cc(F)c(C3CCN(Cc4cccc(S(=O)(=O)N5CCC(Nc6ncc7c(n6)N([C@@H]6CCC[C@@H](O)C6)C(=O)C76CC6)CC5)c4)CC3)cc21 [Compound 176, 1-[5-Fluoro-6-(1-{[3-(4-{7′-[(1R,3R)-3-hydroxycyclohexyl]-6′-oxospiro[cyclopropane-1,5′-pyrrolo[2,3-d]pyrimidin]-2′-ylamino}piperidin-1-ylsulfonyl)phenyl]methyl}piperidin-4-yl)-1-methylindazol-3-yl]-1,3-diazinane-2,4-dione]		
43	16	91	12.7	C[C@@H]1CN([C@@H](C)c2cccc(S(=O)(=O)N3CC[C@H](Nc4ncc5c(n4)N([C@@H]4CCC[C@@H](O)C4)C(=O)C54CC4)[C@H](F)C3)c2)CCN1c1ccc2c(N3CCC(=O)NC3=O)nn(C)c2c1 [Compound 209]		
34	38	75	25.2	Cn1nc(N2CCC(=O)NC2=O)c2ccc(C3CCN(Cc4cc(S(=O)(=O)N5CCC(Nc6ncc7c(n6)N([C@@H]6CCC[C@@H](O)C6)C(=O)C76CC6)CC5)ccn4)CC3)cc21 [Compound 160, 1-[6-(1-{[4-(4-{7′-[(1R,3R)-3-Hydroxycyclohexyl]-6′-oxospiro[cyclopropane-1,5′-pyrrolo[2,3-d]pyrimidin]-2′-ylamino}piperidin-1-ylsulfonyl)pyridin-2-yl]methyl}piperidin-4-yl)-1-methylindazol-3-yl]-1,3-diazinane-2,4-dione]		
29	15	55	4.43	Cn1nc(N2CCC(=O)NC2=O)c2ccc(C3CCN(Cc4ccc(F)c(S(=O)(=O)N5CCC(Nc6ncc7c(n6)N([C@@H]6CCC[C@@H](O)C6)C(=O)C76CC6)CC5)c4)CC3)cc21 [Compound 171]		
36	14	93	12	C[C@H](c1cccc(S(=O)(=O)N2CC[C@H](Nc3ncc4c(n3)N([C@@H]3CCC[C@@H](O)C3)C(=O)C43CC3)[C@H](F)C2)c1)N1CCN(c2ccc3c(N4CCC(=O)NC4=O)nn(C)c3c2)CC1 [Compound 196]		
45	16	92	4.67	C[C@@H]1CN(c2ccc3c(N4CCC(=O)NC4=O)nn(C)c3c2)CCN1[C@@H](C)c1cccc(S(=O)(=O)N2CC[C@H](Nc3ncc4c(n3)N([C@@H]3CCC[C@@H](O)C3)C(=O)C43CC3)[C@H](F)C2)c1 [Compound 192, 1-(6-((R)-4-((S)-1-(3-(((3R,4S)-3-Fluoro-4-((7′-((1R,3R)-3-hydroxycyclohexyl)-6′-oxo-6′,7′-dihydrospiro[cyclopropane-1,5′-pyrrolo[2,3-d]pyrimidin]-2′-yl)amino)piperidin-1-yl)sulfonyl)phenyl)ethyl)-3-methylpiperazin-1-yl)-1-methyl-1H-indazol-3-yl)dihydropyrimidine-2,4(1H,3H)-dione]		
38	23	75	1.8	Cn1nc(N2CCC(=O)NC2=O)c2ccc(C3CCN(Cc4cccc(S(=O)(=O)N5CCC(Nc6ncc7c(n6)N([C@H]6CCC[C@]6(C)O)C(=O)C76CC6)CC5)c4)CC3)cc21 [Compound 178]		
49	17	74	4.05	Cn1nc(N2CCC(=O)NC2=O)c2ccc(C3CCN(Cc4cccc(S(=O)(=O)N5CCC(Nc6ncc7c(n6)N([C@@H]6CCC[C@@H](O)C6)C(=O)C76CC6)CC5)c4F)CC3)cc21 [Compound 172]		
